Test results reported in paper PMC10057480, “Expanding the Library of 1,2,4-Oxadiazole Derivatives: Discovery of New Farnesoid X Receptor (FXR) Antagonists/Pregnane X Receptor (PXR) Agonists” (Molecules, 2023).
Several values for one entry are separate records, joined by “and”; a condition that tells them apart may be missing. Equal entries are not always repeated.

What was measured:
Type in all cases: cell-based
PXR = target: T1, PXR (Homo sapiens, UniProt O75469); assay: PXR luciferase reporter transactivation assay (agonism) on HepG2 cells; conditions: compound 10 μM, maximal transactivation compared to Rifaximin 10 μM, mean ± SD, at least three experiments
T1 construct: expressed in transfected cells; host or cells: HepG2
T1 sequence (O75469 1-434): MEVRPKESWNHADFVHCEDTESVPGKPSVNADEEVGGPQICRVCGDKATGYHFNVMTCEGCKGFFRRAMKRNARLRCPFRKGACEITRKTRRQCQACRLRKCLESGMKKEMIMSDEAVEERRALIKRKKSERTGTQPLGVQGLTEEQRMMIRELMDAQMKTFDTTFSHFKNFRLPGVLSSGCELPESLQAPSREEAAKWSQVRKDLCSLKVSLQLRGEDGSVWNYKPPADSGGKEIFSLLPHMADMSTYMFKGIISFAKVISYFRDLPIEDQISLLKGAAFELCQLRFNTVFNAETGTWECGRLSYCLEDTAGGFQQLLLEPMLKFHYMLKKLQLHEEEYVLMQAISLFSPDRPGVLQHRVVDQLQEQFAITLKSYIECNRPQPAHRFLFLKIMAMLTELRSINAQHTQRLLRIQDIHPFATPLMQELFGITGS
T1 sequence (P19793 1-462 partner): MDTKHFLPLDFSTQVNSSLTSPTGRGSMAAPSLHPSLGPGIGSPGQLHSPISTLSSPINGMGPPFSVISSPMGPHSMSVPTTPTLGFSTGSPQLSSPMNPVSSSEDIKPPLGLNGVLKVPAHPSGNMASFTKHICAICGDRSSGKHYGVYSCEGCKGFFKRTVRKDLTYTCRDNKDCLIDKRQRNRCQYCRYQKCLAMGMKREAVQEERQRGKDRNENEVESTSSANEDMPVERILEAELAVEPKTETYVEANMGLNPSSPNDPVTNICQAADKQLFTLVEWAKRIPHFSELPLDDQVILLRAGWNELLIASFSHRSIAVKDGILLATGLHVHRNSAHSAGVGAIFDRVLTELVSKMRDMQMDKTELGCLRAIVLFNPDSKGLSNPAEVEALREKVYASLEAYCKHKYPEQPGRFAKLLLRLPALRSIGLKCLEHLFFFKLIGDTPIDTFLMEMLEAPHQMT
Experimental: (§1) The antagonistic activity on FXR was investigated using HepG2 cells transfected with 100 ng of pSG5-FXR and pSG5-RXR, 200 ng of the reporter vector p(hsp27)-TK-LUC containing the FXR response element, and 100 ng of the pGL4.70 vector encoding the human Renilla gene used as a transfection control. Cells were stimulated with the agonist 6-ECDCA (10 µM) alone or in combination with compounds 2–11 after 24 h. In another experimental setting, HepG2 cells were transfected using 100 ng of pSG5-PXR, 100 ng of pSG5-RXR, and 100 ng of pGL4.70, along with the reporter vector pGL3(henance)PXRE. At 24 h post-transfection, cells were stimulated with rifaximin 10 μM (as a positive control) or compounds 2–11 (10 μM). The specificity of compounds 5 and 11 versus FXR and PXR was tested using HepG2 cells transiently transfected with 200 ng of the reporter vector p(UAS)5XTKLuc, 100 ng of a vector containing the ligand binding domain of LXRα or LXRβand 100 ng of pGL4.70, a vector encoding the human Renilla gene. At 24 h post-transfection, cells were stimulated for 18 h with GW3965 (5 μM), compounds 5 and 11 (10 μM), and the combination of GW3965 plus 5 or 11 (50 μM). Cellular lysate was assayed for luciferase and Renilla activities after 18 h using the Dual-Luciferase Reporter assay system (E1980, Promega, Madison, WI, USA). The activity of luciferase was measured using the Glomax 20/20 luminometer (Promega, Madison, WI, USA) and normalized with Renilla activities.

FXR = target: T2, FXR (Homo sapiens, UniProt Q96RI1); assay: FXR luciferase reporter transactivation assay (antagonism) on HepG2 cells; conditions: HepG2 transactivation; compounds at 50 μM; percent inhibition of transactivation set at 100%; mean ± SD, at least three experiments
T2 construct: expressed in transfected cells; host or cells: HepG2
T2 sequence (Q96RI1 1-486): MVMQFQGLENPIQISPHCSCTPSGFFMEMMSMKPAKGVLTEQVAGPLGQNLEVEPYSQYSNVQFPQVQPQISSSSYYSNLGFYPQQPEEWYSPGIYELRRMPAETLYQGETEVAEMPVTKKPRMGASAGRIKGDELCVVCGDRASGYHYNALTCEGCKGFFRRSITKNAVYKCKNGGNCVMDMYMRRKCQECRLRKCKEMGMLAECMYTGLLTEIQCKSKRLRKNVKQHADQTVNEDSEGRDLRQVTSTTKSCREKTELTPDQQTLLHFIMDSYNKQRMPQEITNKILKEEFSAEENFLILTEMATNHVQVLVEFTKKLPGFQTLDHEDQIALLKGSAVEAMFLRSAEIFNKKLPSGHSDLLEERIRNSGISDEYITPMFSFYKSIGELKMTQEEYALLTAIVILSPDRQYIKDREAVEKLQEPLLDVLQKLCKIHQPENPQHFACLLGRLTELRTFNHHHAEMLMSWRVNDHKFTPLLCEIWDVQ
Experimental: as §1, with “Cells were stimulated with the agonist 6-ECDCA (10 µM) alone or in combination with compounds 2–11 after 24 h.” left out

HepG2 cells = assay: Toxicity on HepG2 cells seen in the FXR transactivation assay; conditions: at 50 μM
Experimental: as §1

[1] = tested on: Human-CaCo2 cells stimulated with TNFα; assay: qPCR of PXR and inflammatory cytokines in TNFα-stimulated CaCo2 cells; conditions: TNFα 100 ng/mL plus compound 10 μM
Experimental: HepG2 and CaCo2 cell lines, obtained from ATCC, were routinely cultured in Eagle’s MEM and high-glucose DMEM, respectively, supplemented with 10% FBS, 1% glutamine, and penicillin/streptomycin. For in vitro experiments, HepG2 (2 × 106) cells were stimulated with 6-ECDCA at a concentration of 10 µM alone or in combination with compound 5 or 11, and CaCo2 cells were exposed to TNFα (100 ng/mL) alone or in combination with rifaximin, compound 5, or 11.
Total RNA was isolated from the HepG2 and CaCo2 cell lines using TRI reagent (Zymo Research) and Direct-zol™ RNA MicroPrep w/Zymo-Spin™ IIC Columns (Zymo Research, Irvine, CA, USA). After purification from genomic DNA using DNase I (Thermo Fisher Scientific, Waltham, MA, USA), 2 μg of RNA from each sample was reverse transcribed using Kit FastGene Scriptase Basic (Nippon Genetics, Mariaweilerstraße, Düren, Germany) in 20-μL of reaction volume, and 50 ng of cDNA was amplified in a 20-μL solution containing 200 nM of each primer and 10 μL of PowerUp™ SYBR™ Green Master Mix (Thermo Fisher Scientific, Waltham, MA, USA) using a Quantstudio 3 system (Applied Biosystems, Foster City, CA, USA). The relative mRNA expression was calculated according to the ΔCt method. The primer used were as follows (forward and reverse): hGapdh (for […]; rev […]), hBsep (for […]; rev […]), hOstα (for […]; rev […]), hNtcp (for […]; rev […]), hPxr (for GCAAGGGCTTTTTCAGGAG; rev GGGTCTTCCGGGTGATCT), hIl-8 (for […]; rev […]), hIl-1β (for […]; rev […]).

PXR Agonism Eff (%) (PXR) | Structure (SMILES) | FXR Antagonism Eff (%) (FXR) | Toxicity on HepG2 cells (HepG2 cells) | Effect on proinflammatory factors caused by TNFα stimulation [1]
2 ± 0.3% | CCN1CCC(c2nc(-c3ccc4ccccc4c3)no2)CC1 [Compound 2, 5-(1-Ethylpiperidin-4-yl)-3-(naphthalen-2-yl)-1,2,4-oxadiazole] | Toxic | toxic | 
15 ± 0.5% | CCCN1CCC(c2nc(-c3ccc4ccccc4c3)no2)CC1 [Compound 3, 3-(Naphthalen-2-yl)-5-(1-propylpiperidin-4-yl)-1,2,4-oxadiazole] | Toxic | toxic | 
68% and 68 ± 8% | CCCCN1CCC(c2nc(-c3ccc4ccccc4c3)no2)CC1 [Compound 4, 5-(1-Butylpiperidin-4-yl)-3-(naphthalen-2-yl)-1,2,4-oxadiazole] | 38 ± 5% |  | 
23 ± 0.7% | CCCCCCN1CCC(c2nc(-c3ccc4ccccc4c3)no2)CC1 [Compound 6, 5-(1-Hexylpiperidin-4-yl)-3-(naphthalen-2-yl)-1,2,4-oxadiazole] |  |  | 
28 ± 3% | CCCCCCCN1CCC(c2nc(-c3ccc4ccccc4c3)no2)CC1 [Compound 7, 5-(1-Heptylpiperidin-4-yl)-3-(naphthalen-2-yl)-1,2,4-oxadiazole] | Toxic | toxic | 
50% and 50 ± 7% | CC(C)N1CCC(c2nc(-c3ccc4ccccc4c3)no2)CC1 [Compound 8, 5-(1-Isopropylpiperidin-4-yl)-3-(naphthalen-2-yl)-1,2,4-oxadiazole] |  |  | 
3 ± 0.2% | CCC(C)N1CCC(c2nc(-c3ccc4ccccc4c3)no2)CC1 (stereo not shown) [Compound 9, 5-(1-(Sec-butyl)piperidin-4-yl)-3-(naphthalen-2-yl)-1,2,4-oxadiazole] | Toxic | toxic | 
20 ± 3% | OCc1cccc(CN2CCC(c3nc(-c4ccc5ccccc5c4)no3)CC2)c1 [Compound 10, 5-[1-(3-(Hydroxymethyl)benzyl)piperidin-4-yl]-3-(naphthalen-2-yl)-1,2,4-oxadiazole] | 66% and 66 ± 13% |  | 
 | CO[C@H]1/C=C/O[C@@]2(C)Oc3c(C)c(O)c4c(O)c(c5c(nc6cc(C)ccn65)c4c3C2=O)NC(=O)/C(C)=C\C=C\[C@H](C)[C@H](O)[C@@H](C)[C@@H](O)[C@@H](C)[C@H](OC(C)=O)[C@@H]1C [rifaximin, reference compound] |  |  | reduced changes in the production of proinflammatory factors
